The assay deals with T1, estrogen receptors (ERs; subtype not resolved).
T1 construct: endogenous receptors in whole endometriotic stromal cells (ESCs)
In words: whole-cell competitive radioligand binding against [3H]-E2. It is filed as cell-based, Homo sapiens. As to the method: whole-cell competitive radioligand binding against [3H]-E2 on estrogen receptors (ERs; subtype not resolved) | puerarin also competed against the specific binding of [^3H]-E2 to ERs, and the IC50 of puerarin was determined

By IC50 is commonly meant the concentration at which inhibition is half-maximal. `O=c1c(-c2ccc(O)cc2)coc2c([C@@H]3O[C@H](CO)[C@@H](O)[C@H](O)[C@H]3O)c(O)ccc12` [puerarin] gave a half-maximal inhibitory concentration (IC50) of 0.87 µM.

The values are drawn from article PMC3446905, “Puerarin Suppresses Proliferation of Endometriotic Stromal Cells Partly via the MAPK Signaling Pathway Induced by 17ß-estradiol-BSA” (PLoS ONE, 2012).
